Assay results as given in patent US11136301B2, “Broad spectrum antiviral compounds and uses thereof” (The Regents Of The University Of California, priority 2015, dated 2021).
pIC50: −log10 of the molar value. Entries after “also recorded” stand apart in the source; their conditions may differ. Counter-ions that a name gives are not always drawn. Like-named read-outs stand apart in the source and are kept apart here.

Key:
[1] = tested on: wild-type HIV-1 (HIV-1LAI) in MT-4 cells (permissive); assay: Antiviral activity assay: wild-type HIV-1 in permissive MT4 cells, reverse transcriptase activity in culture supernatants; format: cell-based; conditions: for viral replication (reverse transcriptase activity in supernatants): MT4 cells, HIV-1LAI, up to 50 μM, 15 days
[2] = tested on: HA-tagged A3G and GFP-tagged Vif or ΔVif in 293FT cells; assay: Immunoblot of A3G and Vif levels in transfected 293FT cells; conditions: 293FT cells, 50 μM, 16 h
[3] = tested on: wild-type HIV-1 (HIV-1LAI) in H9 cells (non-permissive); assay: microbe, parasite or virus in culture; format: cell-based; conditions: for pIC50: Human immunodeficiency virus 1, H9, read-out: IC50, anti-HIV-1 activity, non-permissive H9 cells; for viral replication (reverse transcriptase activity in supernatants): HIV-1LAI, up to 50 μM, 15 days
[4] = tested on: HSP90; assay: ViTAP (Vif inhibitor Target Affinity Purification): streptavidin affinity purification of compound-bound proteins; format: binding; conditions: transfected 293FT cells, streptavidin affinity purification
[5] = tested on: polyubiquitination of A3G and Vif; assay: Ubiquitination assay in 293FT cells; format: cell-based; conditions: 293FT cells expressing HA-A3G and GFP-Vif, 10 μM, ALLN
Description: Cells were incubated with or without 10 μM of IMA82, IMD55, or IMD64 for 16 h, and then with or without 10 μM of the calpain inhibitor ALLN for 4 h. The cells were washed once with PBS and lysed. Samples of 200 μg protein were immunoprecipitated by the addition of rat anti-HA (Roche) or mouse anti-GFP (Wako) antibodies (7 μg) and 50 μl protein G DYNABEADS® (Invitrogen) and rotated at RT for 2 h. The beads were washed three times with PBS containing 0.05% Tween 20 and boiled in 5×SDS sample buffer. The denatured proteins were resolved and electroblotted onto PVDF membranes. The membranes were probed with rabbit anti-ubiquitin, rabbit anti-HA, or rabbit anti-GFP antibodies, as described above.

[6] = Human immunodeficiency virus 1, MT4, Table 2, wild-type HIV-1, permissive MT4 cells, read-out: Antiviral activity (IC50 μM) MT4
[7] = Human immunodeficiency virus 1, MT4, wild-type HIV-1 (HIV-1LAI), MT4 cells (permissive), RT activity in culture supernatants, compounds 1 to 50 μM, read-out: Antiviral activity (IC50 μM) MT4 cells
[8] = Human immunodeficiency virus 1, H9, read-out: Antiviral activity (IC50 μM) H9, Table 2, wild-type HIV-1, non-permissive H9 cells
[9] = Human immunodeficiency virus 1, H9, read-out: Antiviral activity (IC50 μM) H9 Cells, Table 4, wild-type HIV-1, non-permissive H9 cells
[10] = Human immunodeficiency virus 1, H9, read-out: Antiviral activity (IC50 μM) H9 Cells, Table 7, wild-type HIV-1, non-permissive H9 cells
[11] = Human immunodeficiency virus 1, H9, read-out: Antiviral activity (IC50 μM) H9 cells, Table 5, wild-type HIV-1, non-permissive H9 cells
[12] = Human immunodeficiency virus 1, H9, read-out: Antiviral activity (IC50 μM) H9 cells, Table 8, wild-type HIV-1, non-permissive H9 cells
[13] = Human immunodeficiency virus 1, H9, read-out: Antiviral activity (IC50 μM) H9 cells, wild-type HIV-1 (HIV-1LAI), H9 cells (non-permissive), RT activity in culture supernatants, compounds 1 to 50 μM

| Compound | melting point [°C] | IC50 [1, 6] [µM] | IC50 [1, 7] [µM] | upregulation of A3G and downregulation of Vif (immunoblots, FIG. 16) [2] | IC50 [3, 8] [µM] | IC50 [3, 9] [µM] | IC50 [3, 10] [µM] | IC50 [3, 11] [µM] | IC50 [3, 12] [µM] | IC50 [3, 13] [µM] | pIC50 [3] | fold more potent than the original lead molecule RN-18 ([3]; H9 cells, IC50 compared with RN-18) | viral replication (reverse transcriptase activity in supernatants) ([3]; H9 cells) | co-purification of HSP90 (90 kDa protein) with the compound [4] | viral replication (reverse transcriptase activity in supernatants) [1] | A3G ubiquitination [5] | Vif ubiquitination [5] |
| --- | --- | --- | --- | --- | --- | --- | --- | --- | --- | --- | --- | --- | --- | --- | --- | --- | --- |
| COc1ccccc1-n1cc(-c2ccccc2S(=O)(=O)c2ccc(C(=O)O)cc2)nn1 (as salt: salt) [Compound 2gy, 2-Hydroxy-N,N,N-trimethylethanaminium 4-((2-(1-(2-methoxyphenyl)-1H-1,2,3-triazol-4-yl)phenyl)sulfonyl)benzoate] | 93 |  |  |  |  |  |  |  |  |  |  |  |  |  |  |  |  |
| COc1ccccc1-n1cc(-c2ccccc2S(=O)(=O)c2ccc(N)cc2)nn1 [Compound 2ey, 4-((2-(1-(2-Methoxyphenyl)-1H-1,2,3-triazol-4-yl)phenyl)sulfonyl)aniline] |  | > 50 | > 50 | same mechanism as of RN-18; also recorded: same mechanism as observed for RN-18 and 1d | 0.4 | 0.4 | 0.4 | 0.4 | 0.4 | 0.4 | 6.40 |  |  |  |  |  |  |
| COc1ccc(OC)c(-n2cc(-c3ccccc3Sc3ccc([N+](=O)[O-])cc3)nn2)c1 [Compound 5ax, 1-(2,5-Dimethoxyphenyl)-4-(2-((4-nitrophenyl)thio)phenyl)-1H-1,2,3-triazole] |  | > 50 | > 50 | same mechanism as of RN-18; also recorded: same mechanism as observed for RN-18 and 1d | 0.01 | 0.01 | 0.01 | 0.01 | 0.01 | 0.01 | 8.00 | about 1000 fold |  |  |  |  |  |
| COc1cc(C(=O)NCCOCCOCCOCCNC(=O)CCCCC2SCC3NC(=O)NC32)ccc1NC(=O)c1ccccc1Sc1ccc([N+](=O)[O-])cc1 (stereo not drawn) [IMD40, 3-methoxy-4-(2-((4-nitrophenyl)thio)benzamido)-N-(13-oxo-17-(2-oxohexahydro-1H-thieno[3,4-d]imidazol-4-yl)-3,6,9-trioxa-12-azaheptadecyl)benzamide] |  |  |  |  |  |  |  |  |  |  |  |  | dose-dependently inhibited viral replication | binds HSP90; also recorded: purified a specific 90 kDa protein |  |  |  |
| [N-]=[N+]=Nc1ccc(C(=O)NCCOCCOCCOCCNC(=O)CCCCC2SCC3NC(=O)NC32)cc1 (stereo not drawn) [IMD64, 4-Azido-N-(13-oxo-17-(2-oxohexahydro-1H-thieno[3,4-d]imidazol-4-yl)-3,6,9-trioxa-12-azaheptadecyl)benzamide] |  |  |  |  |  |  |  |  |  |  |  |  | no effect on viral replication | did not associate | no effect on viral replication | extensively ubiquitinated |  |
| COc1ccccc1-n1cc(-c2ccccc2Sc2ccc(C(F)(F)F)cc2)nn1 [Compound 2dx, 1-(2-Methoxyphenyl)-4-(2-((4-(trifluoromethyl)phenyl)thio)phenyl)-1H-1,2,3-triazole] |  | > 50 | > 50 | same mechanism as of RN-18; also recorded: same mechanism as observed for RN-18 and 1d | 2.6 | 2.6 | 2.6 | 2.6 | 2.6 | 2.6 | 5.52 to 6.00 |  |  |  |  |  |  |
| COc1ccccc1C(=O)NCCOCCOCCOCCNC(=O)CCCCC1SCC2NC(=O)NC21 (stereo not drawn) [IMD41, 2-methoxy-N-(13-oxo-17-(2-oxohexahydro-1H-thieno[3,4-d]imidazol-4-yl)-3,6,9-trioxa-12-azaheptadecyl)benzamide] |  |  |  |  |  |  |  |  |  |  |  |  | no effect on viral replication | did not co-purify | no effect on viral replication |  |  |
| COc1ccc(OC)c(-n2cc(-c3ccccc3S(=O)(=O)c3ccc(N)cc3)nn2)c1 [Compound 5ey, 4-((2-(1-(2,5-Dimethoxyphenyl)-1H-1,2,3-triazol-4-yl)phenyl)sulfonyl)aniline] |  | > 50 | > 50 | same mechanism as of RN-18; also recorded: same mechanism as observed for RN-18 and 1d | 0.6 | 0.6 | 0.6 | 0.6 | 0.6 | 0.6 |  |  |  |  |  |  |  |
| COc1ccc(S(=O)(=O)c2ccccc2-c2cn(-c3cc(OC)ccc3OC)nn2)cc1 [Compound 5cy, 1-(2,5-Dimethoxyphenyl)-4-(2-((4-methoxyphenyl)sulfonyl)phenyl)-1H-1,2,3-triazole] |  | > 50 | > 50 |  | > 50 |  |  | > 50 | > 50 | > 50 |  |  |  |  |  |  |  |
| COc1cccc(OC)c1-n1cc(-c2ccccc2S(=O)(=O)c2ccc(N)cc2)nn1 [Compound 6ey, 4-((2-(1-(2,6-Dimethoxyphenyl)-1H-1,2,3-triazol-4-yl)phenyl)sulfonyl)aniline] |  | > 50 | > 50 |  | 1.5 | 1.5 | 1.5 | 1.5 | 1.5 | 1.5 | 5.52 to 6.00 |  |  |  |  |  |  |
| COc1ccc(OC)c(-n2cc(-c3ccccc3Sc3ccc(C(F)(F)F)cc3)nn2)c1 [Compound 5dx, 1-(2,5-Dimethoxyphenyl)-4-(2-((4-(trifluoromethyl)phenyl)thio)phenyl)-1H-1,2,3-triazole] |  | > 50 | > 50 |  | 46.4 |  |  | 46.4 | 46.4 | 46.4 |  |  |  |  |  |  |  |
| COc1cc(C(=O)NCCOCCOCCOCCNC(=O)CCCCC2SCC3NC(=O)NC32)ccc1NC(=O)c1ccc(N=[N+]=[N-])cc1Sc1ccc([N+](=O)[O-])cc1 (stereo not drawn) [IMD55, 4-azido-N-(2-methoxy-4-((13-oxo-17-(2-oxohexahydro-1H-thieno[3,4-d]imidazol-4-yl)-3,6,9-trioxa-12-azaheptadecyl)carbamoyl)phenyl)-2-((4-nitrophenyl)thio)benzamide] |  |  |  |  |  |  |  |  |  |  |  |  | dose-dependently inhibited viral replication | co-purified; also recorded: specifically co-purify |  | not observed | ubiquitinated |
| COc1cccc(-n2cc(-c3ccccc3S(=O)(=O)c3ccc(C(=O)O)cc3)nn2)c1OC [Compound 3fy, 4-((2-(1-(2,3-Dimethoxyphenyl)-1H-1,2,3-triazol-4-yl)phenyl)sulfonyl)benzoic Acid] |  | > 50 | > 50 |  | 1.4 | 1.4 | 1.4 | 1.4 | 1.4 | 1.4 | 5.52 to 6.00 |  |  |  |  |  |  |
